Test systems include NCI-H460; SF-539; HCT-15; SNB-19; PC-3; Hs-578T; SW-620; HOP-62; OVCAR-8; NCI/ADR-RES; UACC-62; OVCAR-5; MDA-MB-435; SN12C; SK-MEL-5; HCT-116; MCF7; K562; HT-29; SK-OV-3.
Common to all, as to test: NCI tumour cell line growth inhibition, 48 h

Molecules are shown by their SMILES.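 Method: 48-hour compound exposure of cells in 96-well plates, five concentrations, linear interpolation of endpoints. The concentration for 50% growth inhibition is given as GI50.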 The source made the active and inactive calls. Cut-off read from the data, not from the text of the source: active = GI50 up to about 1.1 µM and inactive = higher.

The values that follow come from ChEMBL document CHEMBL1201862, “PubChem BioAssay data set” (2004).

With `COc1ccc(C2c3cc4c(cc3OC(N3CCCCC3)C2C)OCO4)cc1` (stereo unspecified), the GI50 in the experiment with NCI-H460 is > 100 µM (inactive); with SF-539 it was > 100 µM (inactive); in the experiment with HCT-15 it was over 100 µM; in the experiment with SNB-19, > 100 µM (inactive); with PC-3, > 100 µM (inactive); in the experiment with Hs-578T, 33.6 µM (inactive). Also, the GI50 in the experiment on SW-620, in the experiment on HOP-62, in the experiment with OVCAR-8, with NCI/ADR-RES, in the experiment on UACC-62 and in the experiment on OVCAR-5 was > 100 µM (inactive) throughout. The GI50 was 27 µM (inactive) in the experiment on MDA-MB-435; > 100 µM (inactive) in the experiment on SN12C; > 100 µM (inactive) in the experiment on SK-MEL-5; > 100 µM (inactive) in the experiment on HCT-116; > 100 µM (inactive) in the experiment with MCF7; > 100 µM (inactive) in the experiment on K562. Further, the GI50 with HT-29 is > 100 µM (inactive).

On to `Cc1c(Cl)ccc2c(=O)c3cccc(CC(=O)O)c3oc12`, for which the GI50 in the experiment on NCI-H460 is > 100 µM (inactive); in the experiment on SF-539, > 100 µM (inactive); with HCT-15 it was over 100 µM; in the experiment on SNB-19, > 100 µM (inactive); in the experiment with PC-3, > 100 µM (inactive); in the experiment with Hs-578T it was > 100 µM (inactive). The GI50 in the experiment with SW-620, with HOP-62, in the experiment on OVCAR-8, with NCI/ADR-RES, with MDA-MB-435 and in the experiment on SN12C was > 100 µM (inactive) each time. The GI50 was > 100 µM (inactive) with SK-MEL-5; > 100 µM (inactive) with HCT-116; 35.6 µM (inactive) with MCF7; > 100 µM (inactive) with K562; > 100 µM (inactive) with HT-29.

As to `[N-]=[N+]=C(C(=O)C(=[N+]=[N-])C(=O)c1ccccc1)C(=O)c1ccccc1`, the GI50 in the experiment on NCI-H460 was > 100 µM (inactive); in the experiment with SF-539 it was > 100 µM (inactive); in the experiment on HCT-15, over 100 µM; in the experiment on SNB-19, > 100 µM (inactive); with PC-3 it was > 100 µM (inactive); in the experiment with Hs-578T, > 100 µM (inactive). The GI50 in the experiment with SW-620, in the experiment with HOP-62, in the experiment on OVCAR-8, with NCI/ADR-RES, in the experiment with UACC-62 and in the experiment on OVCAR-5 was > 100 µM (inactive) throughout. Moreover, the GI50 in the experiment with MDA-MB-435, with SN12C, in the experiment on SK-MEL-5, in the experiment on HCT-116, with MCF7 and in the experiment with K562 was > 100 µM (inactive) in each case. Further, the GI50 in the experiment on HT-29 is > 100 µM (inactive).

Take `C#CC(O)/C=C/C(O)CCCC(O)CC#CC(O)C#CC(O)CCCC(O)/C=C/CCCC(=O)CCCCCCCCCCCCCCCC(O)C(O)C#CC(=O)O` (stereo unspecified): the GI50 was > 50 µM (inactive) with NCI-H460; over 50 µM in the experiment on HCT-15; > 50 µM (inactive) in the experiment on SNB-19; > 50 µM (inactive) in the experiment with PC-3; > 50 µM (inactive) in the experiment with Hs-578T; > 50 µM (inactive) in the experiment with HOP-62. For the same molecule, the GI50 with OVCAR-8, in the experiment with NCI/ADR-RES, with UACC-62, with OVCAR-5, in the experiment with MDA-MB-435 and in the experiment on SN12C was > 50 µM (inactive) in each case. The GI50 is > 50 µM (inactive) in the experiment on SK-MEL-5; > 50 µM (inactive) with HCT-116; > 50 µM (inactive) with MCF7; > 50 µM (inactive) with SK-OV-3; > 50 µM (inactive) with K562; 28.1 µM (inactive) with HT-29.

With `O=c1[nH]nc(-c2ccccc2)n1-c1cccc([N+](=O)[O-])c1`, the GI50 in the experiment with NCI-H460 was > 100 µM (inactive); in the experiment on SF-539 it was > 100 µM (inactive); in the experiment with HCT-15 it was over 100 µM; with SNB-19 it was > 100 µM (inactive); in the experiment with Hs-578T, > 100 µM (inactive); in the experiment on SW-620 it was > 100 µM (inactive). Also, the GI50 in the experiment with HOP-62, in the experiment on OVCAR-8, in the experiment on NCI/ADR-RES, in the experiment on UACC-62, in the experiment on OVCAR-5 and with MDA-MB-435 was > 100 µM (inactive) in each case. For the same molecule, the GI50 with SN12C, with SK-MEL-5, in the experiment on HCT-116, in the experiment on MCF7, in the experiment with SK-OV-3 and with K562 was > 100 µM (inactive) each time. The GI50 in the experiment with HT-29 was > 100 µM (inactive).

`CCOC(=O)C1CCC(=O)N1C(=O)c1cccc(Cl)c1` (stereo unspecified): the GI50 is > 100 µM (inactive) with NCI-H460; > 100 µM (inactive) in the experiment with SF-539; over 100 µM in the experiment with HCT-15; > 100 µM (inactive) in the experiment with SNB-19; > 100 µM (inactive) with PC-3; > 100 µM (inactive) in the experiment with Hs-578T. Moreover, the GI50 in the experiment with SW-620 was > 100 µM (inactive); in the experiment with HOP-62, > 100 µM (inactive); with OVCAR-8, > 100 µM (inactive); with NCI/ADR-RES, > 100 µM (inactive); in the experiment on UACC-62, 14.8 µM (inactive); in the experiment with OVCAR-5 it was > 100 µM (inactive). For the same molecule, the GI50 with MDA-MB-435, in the experiment with SN12C, in the experiment on SK-MEL-5, with HCT-116, with MCF7 and in the experiment with K562 was > 100 µM (inactive) each time. Moreover, the GI50 in the experiment on HT-29 was > 100 µM (inactive).

For the molecule `COC(=O)c1ccccc1C1CN=NC12Cc1ccc3ccccc3c1C2=O` (stereo unspecified), the GI50 in the experiment on NCI-H460 was 80 µM (inactive); in the experiment with SF-539, 73.8 µM (inactive); with HCT-15, over 100 µM; with SNB-19, > 100 µM (inactive); in the experiment on PC-3, > 100 µM (inactive); in the experiment with Hs-578T, 94.4 µM (inactive). The GI50 in the experiment on SW-620 was > 100 µM (inactive); in the experiment on OVCAR-8, > 100 µM (inactive); in the experiment on NCI/ADR-RES it was > 100 µM (inactive); with UACC-62, > 100 µM (inactive); in the experiment on OVCAR-5, > 100 µM (inactive); with MDA-MB-435, 30.7 µM (inactive). The GI50 with SN12C is > 100 µM (inactive); in the experiment on SK-MEL-5 it was 6.08 µM (inactive); in the experiment with MCF7, > 100 µM (inactive); in the experiment with K562, > 100 µM (inactive).

For the molecule `O=C(NCCCCNCCCNC(=O)c1cc(-c2ccccc2)nc2ccccc12)c1cc(-c2ccccc2)nc2ccccc12`, the GI50 in the experiment with NCI-H460 was 1.91 µM (inactive); with SF-539, 2.13 µM (inactive); in the experiment on HCT-15, 1.82 µM; with SNB-19, 1.76 µM (inactive); in the experiment with PC-3 it was 1.63 µM (inactive); in the experiment with Hs-578T, 1.96 µM (inactive). In addition, the GI50 in the experiment on SW-620 was 1.71 µM (inactive); in the experiment on HOP-62, 1.63 µM (inactive); in the experiment on OVCAR-8, 1.69 µM (inactive); in the experiment with NCI/ADR-RES, 2.26 µM (inactive); in the experiment with UACC-62, 2.12 µM (inactive); in the experiment on MDA-MB-435, 1.79 µM (inactive). Also, the GI50 is 1.97 µM (inactive) with SN12C; 1.44 µM (inactive) in the experiment on SK-MEL-5; 1.8 µM (inactive) in the experiment on HCT-116; 1.64 µM (inactive) in the experiment with MCF7; 1.81 µM (inactive) in the experiment on K562; 1.6 µM (inactive) in the experiment with HT-29.

As to `Cc1ccc(/C=C2\CN(C)CC3C(c4ccc(C)cc4)=C(C#N)C(=O)NC23)cc1` (stereo unspecified), the GI50 with NCI-H460 is > 50 µM (inactive); in the experiment on HCT-15 it was over 50 µM; in the experiment on SNB-19 it was > 50 µM (inactive); in the experiment with PC-3, > 50 µM (inactive); in the experiment on Hs-578T it was > 50 µM (inactive); with SW-620, > 50 µM (inactive). Also, the GI50 in the experiment on HOP-62, in the experiment with OVCAR-8, in the experiment with NCI/ADR-RES, in the experiment with UACC-62, with OVCAR-5 and in the experiment with MDA-MB-435 was > 50 µM (inactive) throughout. The GI50 with SN12C, with SK-MEL-5, with HCT-116, in the experiment with MCF7, in the experiment with SK-OV-3 and in the experiment with K562 was > 50 µM (inactive) each time. In addition, in the experiment with HT-29, the GI50 is > 50 µM (inactive).

As for `CC(=O)OCC12CN(C#N)C3C4COC(CC41)C1(C(=O)N(C)c4ccccc41)C32` (stereo unspecified), the GI50 in the experiment with NCI-H460 is 31.3 µM (inactive); in the experiment with HCT-15 it was 17.1 µM; in the experiment on PC-3, 33.2 µM (inactive); with Hs-578T, 18.2 µM (inactive); in the experiment on SW-620 it was 22 µM (inactive); in the experiment with HOP-62 it was 24.6 µM (inactive). Besides, the GI50 in the experiment with OVCAR-8 was 19.5 µM (inactive); with NCI/ADR-RES it was 22.2 µM (inactive); in the experiment on UACC-62 it was 22.6 µM (inactive); in the experiment with OVCAR-5, 33.4 µM (inactive); in the experiment with MDA-MB-435, 26.8 µM (inactive); in the experiment with SN12C, 20.3 µM (inactive). Besides, the GI50 with SK-MEL-5 was 26.7 µM (inactive); in the experiment with HCT-116, 19.3 µM (inactive); in the experiment on MCF7, 19.3 µM (inactive); in the experiment on SK-OV-3 it was 34.4 µM (inactive); in the experiment with K562, 14.8 µM (inactive); in the experiment with HT-29, 33 µM (inactive).

On to `N[C@@H](Cc1ccc2oc3cc(=O)c4ccccc4c-3nc2c1)C(=O)O`, for which the GI50 with NCI-H460 was 31.1 µM (inactive); in the experiment with SF-539, 74 µM (inactive); with HCT-15, 57.4 µM; in the experiment on SNB-19, 26.4 µM (inactive); in the experiment on Hs-578T, 45.8 µM (inactive); with SW-620, > 100 µM (inactive). Further, the GI50 in the experiment with HOP-62 was 21.9 µM (inactive); in the experiment with OVCAR-8, 49 µM (inactive); in the experiment with NCI/ADR-RES it was > 100 µM (inactive); with UACC-62, 27.4 µM (inactive); in the experiment with OVCAR-5, > 100 µM (inactive); with MDA-MB-435, 17 µM (inactive). In addition, the GI50 with SN12C is 55.5 µM (inactive); in the experiment with SK-MEL-5, 11.7 µM (inactive); with HCT-116, > 100 µM (inactive); with MCF7, 2.36 µM (inactive); in the experiment with SK-OV-3, > 100 µM (inactive); in the experiment on K562, > 100 µM (inactive). In addition, in the experiment on HT-29, the GI50 is 31.5 µM (inactive).
